Experimental data published in ChEMBL document CHEMBL1177805, “AMP-activated protein kinase (AMPK) activators from Myristica fragrans (nutmeg) and their anti-obesity effect” (Bioorg Med Chem Lett, 2010).
Active and inactive are the calls of the source. The rule behind the calls is not given here.

Biological target: 5'-AMP-activated protein kinase catalytic subunit alpha-2 (Mus musculus) (UniProt Q8BRK8)
Assay: Activation of AMPK in mouse […] cells at 5 uM by Western blotting
Format: cell-based

Chain of 5'-AMP-activated protein kinase catalytic subunit alpha-2 (Mus musculus) (Q8BRK8 whole entry): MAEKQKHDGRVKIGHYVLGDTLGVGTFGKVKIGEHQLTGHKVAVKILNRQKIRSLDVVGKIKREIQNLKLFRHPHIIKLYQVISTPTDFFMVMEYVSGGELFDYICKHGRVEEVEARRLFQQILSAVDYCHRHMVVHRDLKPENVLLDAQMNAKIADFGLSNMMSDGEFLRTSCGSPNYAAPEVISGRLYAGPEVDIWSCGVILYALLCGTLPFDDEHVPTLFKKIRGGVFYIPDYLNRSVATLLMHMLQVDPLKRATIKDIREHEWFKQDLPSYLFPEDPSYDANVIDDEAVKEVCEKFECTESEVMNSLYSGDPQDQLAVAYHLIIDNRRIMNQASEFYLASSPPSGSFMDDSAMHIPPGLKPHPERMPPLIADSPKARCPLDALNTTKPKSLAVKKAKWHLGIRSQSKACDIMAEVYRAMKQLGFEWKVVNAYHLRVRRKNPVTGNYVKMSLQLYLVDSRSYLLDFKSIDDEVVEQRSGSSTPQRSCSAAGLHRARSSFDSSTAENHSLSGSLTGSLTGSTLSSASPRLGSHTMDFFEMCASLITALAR

Activity | SMILES
Active | COc1cc([C@H]2O[C@@H](c3ccc(O)c(OC)c3)[C@@H](C)[C@H]2C)ccc1O
Active | COc1cc([C@H]2O[C@@H](c3ccc(O)c(OC)c3)[C@H](C)[C@@H]2C)ccc1O
